From patent US10106627B2, “Process for the preparation of polymeric biosurfactants” (priority 2014, dated 2018)

Assays:
[1] = Thermal degradation analysis (TGA/DSC); assay type: physicochemical
Experimental: The Microsan and Brevisan polymeric biosurfactants recovered and purified in Example 3 were subjected to structural characterization. The average molecular weight (Mw) of EPS was determined by gel permeation chromatography [Agilent 1100 Series HPLC system, TOSOH Corporation, Japan, equipped with a RID and a TSK G5000PWXL gel column (7.8×300 mm) and a TSK PWXL (6.0 mm×40 mm) guard column] using dextran standards ranging from 10680 to 578500 Da (Sigma, CAS No. 9004-54-0). The Fourier transform infrared spectra (FT-IR) were recorded on the Thermo-Nicolet Nexus 670 FT-IR spectrophotometer (Thermo Fisher Scientific Inc., Madison, Wis., U.S.A.) using KBr pellets containing 1% finely ground EPS samples and the spectra was collected at a resolution of 4 cm^−1 in the wavenumber region of 400-4,000 […]. The cross-polarization/magic angle spinning (CP/MAS) ^13C NMR experiments were performed on a Varian Unity Innova spectrometer operating at 400 MHz for ^1H and 100 MHz for ^13C at room temperature. […] Thermal degradation analyses of the EPS samples were measured using a DSC 821^c (Mettler Toledo GmbH, Switzerland) interfaced with Mettler Toledo Star SW (version 8.10) software. […] All of the XPS analyses were carried out in duplicates (two independent samples of each type of EPS analyzed at different time intervals). […]

[2] = Lipid peroxidation assay (malondialdehyde); assay type: biochemical; conditions: cell free
Experimental: The antioxidant activity of Microsan from Microbacterium sp. strain BS-2 and Brevisan from Brevibacillus sp. strain BS-207 in cell free system was measured by its inhibitory activity on the generation of DPPH free radicals, superoxide anions (O^2−), lipid peroxidation and erythrocyte hemolysis. The DPPH free radical scavenging assay was performed using 2,2-diphenyl-1-picrylhydrazyl (DPPH) free radical scavenging method [Ara. N. and Hasan, N. (2009) Res. J. Med. Medical Sci. 4, 107-110]. Different concentrations of Microsan and Brevisan were mixed individually with 150 μl of 160 μM methanolic solution of DPPH and incubated at 35° C. for 30 min in dark. The effective concentration (EC50) was calculated by measuring the absorbance of the samples at 517 nm. The superoxide anion scavenging was measured using phenazine methosulfate-nicotinamide adenine dinucleotide (PMS/NADH) method as previously described [Liu, F., Ooi, V. E. and Chang, S. T. (1997) Life Sci. 60, 763-771]. The lipid peroxidation assay was performed using the previously described method [Zhang, Q., Yu, P., Li, Z., Zhang, H., Xu, Z. and Li, P. (2003) J. Appl. Phycol. 15, 305-310] which is based on measuring the lipid peroxide decomposed product malondialdehyde (MDA). […] Samples were incubated at 37° C. for 30 min and the absorbance was measured at 540 nm. […]

β-D-glucuronyl-(1-2)-D-mannosyl-(1-4)-D-glucose [Microsan]
thermal degradation temperature (TGA) [1]: 280 °C | EC50 lipid peroxidation inhibition [2]: 165.94 µg/mL
